According to patent US20260356819A1, “OXOISOINDOLINYL-SUBSTITUTED […] DERIVATIVE AND USE THEREOF” (GLUETACS THERAPEUTICS (SHANGHAI) CO., LTD., priority 2023, published 2026):

Assays:
Assay type in all cases: cell-based
Details in all cases: compounds at 50 nM and 500 nM
WEE1 = target: T1, WEE1 (Homo sapiens, UniProt P30291+Q96SW2); assay: Western blot degradation of WEE1 in hPBMCs (24 h)
T1 construct: The supernatant was aspirated as the extracted total cell protein; endogenous in cells; host or cells: human peripheral blood mononuclear cells (hPBMCs)
Outline: (§1)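 Immunoblot densitometry quantifies target loss in hPBMCs after a 24 h compound exposure (50 nM, 500 nM). Percent remaining is normalised band intensity; DC50 is the concentration giving half the DMSO-control band grayscale.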

GSPT1 = target: T2, GSPT1 (Homo sapiens, UniProt P15170+Q96SW2); assay: Western blot degradation of GSPT1 in hPBMCs (24 h)
T2 construct: The supernatant was aspirated as the extracted total cell protein; endogenous in cells; host or cells: human peripheral blood mononuclear cells (hPBMCs)
Outline: as §1

IKZF1 = target: T3, IKZF1 (Homo sapiens, UniProt Q13422+Q96SW2); assay: Western blot degradation of IKZF1 in hPBMCs (24 h)
T3 construct: The supernatant was aspirated as the extracted total cell protein; endogenous in cells; host or cells: human peripheral blood mononuclear cells (hPBMCs)
Outline: as §1

IKZF3 = target: T4, IKZF3 (Homo sapiens, UniProt Q96SW2+Q9UKT9); assay: Western blot degradation of IKZF3 in hPBMCs (24 h)
T4 construct: The supernatant was aspirated as the extracted total cell protein; endogenous in cells; host or cells: human peripheral blood mononuclear cells (hPBMCs)
Outline: as §1

CK1α = target: T5, CK1α (Homo sapiens, UniProt P48729+Q96SW2); assay: Western blot degradation of CK1α in hPBMCs (24 h)
T5 construct: The supernatant was aspirated as the extracted total cell protein; endogenous in cells; host or cells: human peripheral blood mononuclear cells (hPBMCs)
Outline: as §1

IKZF2 = target: T6, IKZF2 (Homo sapiens, UniProt Q96SW2+Q9UKS7); assay: Western blot degradation of IKZF2 in hPBMCs (24 h)
T6 construct: The supernatant was aspirated as the extracted total cell protein; endogenous in cells; host or cells: human peripheral blood mononuclear cells (hPBMCs)
Outline: as §1

T5 sequence (P48729 whole entry): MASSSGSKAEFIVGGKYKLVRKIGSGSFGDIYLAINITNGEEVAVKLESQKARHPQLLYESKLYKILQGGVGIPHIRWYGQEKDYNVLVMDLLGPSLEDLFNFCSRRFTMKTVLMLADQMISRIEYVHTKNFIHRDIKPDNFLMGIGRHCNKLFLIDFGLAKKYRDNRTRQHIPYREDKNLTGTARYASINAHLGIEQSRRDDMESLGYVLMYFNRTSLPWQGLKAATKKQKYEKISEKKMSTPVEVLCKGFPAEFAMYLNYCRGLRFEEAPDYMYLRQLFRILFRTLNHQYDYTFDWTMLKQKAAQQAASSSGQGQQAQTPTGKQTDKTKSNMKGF
T5 sequence (Q96SW2 whole entry): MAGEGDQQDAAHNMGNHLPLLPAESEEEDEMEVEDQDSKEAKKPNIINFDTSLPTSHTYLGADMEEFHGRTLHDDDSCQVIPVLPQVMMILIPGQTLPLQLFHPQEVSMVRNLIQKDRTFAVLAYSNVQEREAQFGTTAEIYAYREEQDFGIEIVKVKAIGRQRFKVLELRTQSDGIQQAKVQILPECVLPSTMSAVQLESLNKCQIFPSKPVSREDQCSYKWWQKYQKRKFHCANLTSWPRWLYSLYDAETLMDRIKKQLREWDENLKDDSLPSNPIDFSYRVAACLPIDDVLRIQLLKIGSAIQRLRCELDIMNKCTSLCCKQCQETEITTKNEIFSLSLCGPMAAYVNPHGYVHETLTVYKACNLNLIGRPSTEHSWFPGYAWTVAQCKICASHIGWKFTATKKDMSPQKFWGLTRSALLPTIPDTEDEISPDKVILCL
T5 sequence (Q16531 whole entry partner): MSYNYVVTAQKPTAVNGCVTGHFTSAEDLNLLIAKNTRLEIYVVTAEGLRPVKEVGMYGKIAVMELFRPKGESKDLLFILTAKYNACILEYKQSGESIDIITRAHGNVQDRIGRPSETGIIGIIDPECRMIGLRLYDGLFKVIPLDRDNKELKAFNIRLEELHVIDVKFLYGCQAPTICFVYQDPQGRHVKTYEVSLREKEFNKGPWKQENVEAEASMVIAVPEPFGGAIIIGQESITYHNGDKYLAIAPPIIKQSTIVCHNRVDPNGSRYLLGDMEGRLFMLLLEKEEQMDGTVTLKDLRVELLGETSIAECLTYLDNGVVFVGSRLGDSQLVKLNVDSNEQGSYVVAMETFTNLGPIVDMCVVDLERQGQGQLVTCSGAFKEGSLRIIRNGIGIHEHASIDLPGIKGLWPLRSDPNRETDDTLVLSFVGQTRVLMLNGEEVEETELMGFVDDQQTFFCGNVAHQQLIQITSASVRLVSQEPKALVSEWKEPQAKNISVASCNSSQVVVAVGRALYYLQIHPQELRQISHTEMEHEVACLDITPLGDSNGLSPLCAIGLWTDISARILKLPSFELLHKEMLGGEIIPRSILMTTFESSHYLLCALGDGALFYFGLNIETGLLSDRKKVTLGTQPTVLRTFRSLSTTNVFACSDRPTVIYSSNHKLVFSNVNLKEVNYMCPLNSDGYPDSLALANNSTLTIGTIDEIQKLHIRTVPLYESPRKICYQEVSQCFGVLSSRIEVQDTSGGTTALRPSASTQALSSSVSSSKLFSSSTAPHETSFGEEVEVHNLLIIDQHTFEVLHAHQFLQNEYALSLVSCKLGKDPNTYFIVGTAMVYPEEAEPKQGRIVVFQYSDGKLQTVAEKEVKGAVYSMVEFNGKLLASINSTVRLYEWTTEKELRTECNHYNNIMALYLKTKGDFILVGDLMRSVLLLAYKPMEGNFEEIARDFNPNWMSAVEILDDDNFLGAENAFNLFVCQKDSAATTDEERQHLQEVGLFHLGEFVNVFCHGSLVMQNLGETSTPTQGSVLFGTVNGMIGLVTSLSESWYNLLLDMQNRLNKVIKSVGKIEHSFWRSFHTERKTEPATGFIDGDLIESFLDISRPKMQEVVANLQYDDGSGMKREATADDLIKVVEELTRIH
T4 sequence (Q9UKT9 whole entry): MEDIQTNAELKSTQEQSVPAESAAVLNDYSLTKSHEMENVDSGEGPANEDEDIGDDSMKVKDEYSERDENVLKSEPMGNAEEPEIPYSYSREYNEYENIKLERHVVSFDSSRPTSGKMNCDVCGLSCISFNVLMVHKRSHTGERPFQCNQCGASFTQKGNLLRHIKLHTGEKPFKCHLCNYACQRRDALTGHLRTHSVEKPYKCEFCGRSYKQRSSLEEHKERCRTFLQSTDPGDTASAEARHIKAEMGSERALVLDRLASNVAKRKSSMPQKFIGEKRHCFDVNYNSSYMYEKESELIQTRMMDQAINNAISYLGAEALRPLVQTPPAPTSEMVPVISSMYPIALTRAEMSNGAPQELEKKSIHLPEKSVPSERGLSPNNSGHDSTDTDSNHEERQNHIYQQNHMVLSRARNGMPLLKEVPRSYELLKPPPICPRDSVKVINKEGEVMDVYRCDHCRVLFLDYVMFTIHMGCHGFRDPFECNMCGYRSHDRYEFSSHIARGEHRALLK
T4 sequence (Q96SW2 whole entry): as the sequence (Q96SW2 whole entry) above
T4 sequence (Q16531 whole entry partner): as the sequence (Q16531 whole entry partner) above
T2 sequence (P15170 whole entry): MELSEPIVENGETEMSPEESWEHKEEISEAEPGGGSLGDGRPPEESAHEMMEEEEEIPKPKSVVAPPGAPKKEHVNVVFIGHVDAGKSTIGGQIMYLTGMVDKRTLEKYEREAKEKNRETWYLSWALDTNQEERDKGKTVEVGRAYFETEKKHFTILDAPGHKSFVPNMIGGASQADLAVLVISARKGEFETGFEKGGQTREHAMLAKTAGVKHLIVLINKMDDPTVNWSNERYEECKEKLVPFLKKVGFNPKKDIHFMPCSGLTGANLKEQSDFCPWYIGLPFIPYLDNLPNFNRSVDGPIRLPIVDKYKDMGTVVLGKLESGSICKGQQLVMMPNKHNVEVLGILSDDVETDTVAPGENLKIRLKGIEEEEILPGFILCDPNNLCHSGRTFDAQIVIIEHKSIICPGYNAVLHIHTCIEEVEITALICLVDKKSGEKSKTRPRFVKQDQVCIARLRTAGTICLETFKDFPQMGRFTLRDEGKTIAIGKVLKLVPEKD
T2 sequence (Q96SW2 whole entry): as the sequence (Q96SW2 whole entry) above
T2 sequence (Q16531 whole entry partner): as the sequence (Q16531 whole entry partner) above
T3 sequence (Q13422 whole entry): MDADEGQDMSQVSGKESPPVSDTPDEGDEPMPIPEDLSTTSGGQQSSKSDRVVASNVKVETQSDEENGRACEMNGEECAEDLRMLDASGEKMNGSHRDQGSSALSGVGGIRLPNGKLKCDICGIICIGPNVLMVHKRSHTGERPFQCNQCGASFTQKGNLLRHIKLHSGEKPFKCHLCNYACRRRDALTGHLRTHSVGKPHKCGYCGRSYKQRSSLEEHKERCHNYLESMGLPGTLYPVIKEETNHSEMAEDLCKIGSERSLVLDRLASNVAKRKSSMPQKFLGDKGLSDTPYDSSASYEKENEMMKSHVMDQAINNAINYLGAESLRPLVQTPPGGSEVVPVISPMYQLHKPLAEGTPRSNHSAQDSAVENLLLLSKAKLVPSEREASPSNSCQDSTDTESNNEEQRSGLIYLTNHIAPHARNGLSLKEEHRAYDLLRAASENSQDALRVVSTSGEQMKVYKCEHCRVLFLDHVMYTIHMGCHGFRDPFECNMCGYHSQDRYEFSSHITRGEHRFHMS
T3 sequence (Q96SW2 whole entry): as the sequence (Q96SW2 whole entry) above
T3 sequence (Q16531 whole entry partner): as the sequence (Q16531 whole entry partner) above
T1 sequence (P30291 whole entry): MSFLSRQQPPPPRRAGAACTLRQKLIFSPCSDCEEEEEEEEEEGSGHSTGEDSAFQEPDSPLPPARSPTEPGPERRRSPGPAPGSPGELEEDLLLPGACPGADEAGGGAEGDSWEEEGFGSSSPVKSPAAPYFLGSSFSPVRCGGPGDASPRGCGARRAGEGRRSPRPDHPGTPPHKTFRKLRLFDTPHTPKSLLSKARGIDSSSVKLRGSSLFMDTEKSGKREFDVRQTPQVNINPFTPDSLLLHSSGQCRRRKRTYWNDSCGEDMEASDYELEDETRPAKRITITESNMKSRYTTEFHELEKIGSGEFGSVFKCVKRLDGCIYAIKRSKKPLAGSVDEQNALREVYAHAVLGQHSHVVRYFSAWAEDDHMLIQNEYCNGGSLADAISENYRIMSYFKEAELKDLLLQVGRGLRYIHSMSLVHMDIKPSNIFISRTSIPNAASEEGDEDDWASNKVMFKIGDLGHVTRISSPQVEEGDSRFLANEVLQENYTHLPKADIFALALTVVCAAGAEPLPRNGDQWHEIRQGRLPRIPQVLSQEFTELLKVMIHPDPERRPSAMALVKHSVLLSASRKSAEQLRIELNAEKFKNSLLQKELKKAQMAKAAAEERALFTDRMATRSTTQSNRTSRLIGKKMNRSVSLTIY
T1 sequence (Q96SW2 whole entry): as the sequence (Q96SW2 whole entry) above
T1 sequence (Q16531 whole entry partner): as the sequence (Q16531 whole entry partner) above

Compound	WEE1 substrate protein remaining % (WEE1)	GSPT1 substrate protein remaining % (GSPT1)	IKZF1 substrate protein remaining % (IKZF1)	IKZF3 substrate protein remaining % (IKZF3)	CK1α substrate protein remaining % (CK1α)	IKZF2 substrate protein remaining % (IKZF2)
O=C1CCN(N2C(=O)c3ccc(CN4CCC(N5CCCc6cc(F)ccc65)CC4)cc3C2=O)C(=O)N1 [GT-07681, 2-(2,4-dioxotetrahydropyrimidin-1(2H)-yl)-5-((4-(6-fluoro-3,4-dihydroquinolin-1(2H)-yl)piperidin-1-yl)methyl)isoindoline-1,3-dione]	B (80%< substrate protein remaining % ≤100%)	A (0% ≤ substrate protein remaining % ≤80%)	A (0% ≤ substrate protein remaining % ≤80%)	B (80%< substrate protein remaining % ≤100%)	B (80%< substrate protein remaining % ≤100%)	B (80%< substrate protein remaining % ≤100%)
O=C1CCN(N2C(=O)c3ccc(CN4CCC(N5CCOc6cc(F)ccc65)CC4)cc3C2=O)C(=O)N1 [GT-07682, 2-(2,4-dioxotetrahydropyrimidin-1(2H)-yl)-5-((4-(7-fluoro-2,3-dihydro-4H-benzo[b][1,4]oxazin-4-yl)piperidin-1-yl)methyl)isoindoline-1,3-dione]	B (80%< substrate protein remaining % ≤100%)	A (0% ≤ substrate protein remaining % ≤80%)	B (80%< substrate protein remaining % ≤100%)	B (80%< substrate protein remaining % ≤100%)	B (80%< substrate protein remaining % ≤100%)	B (80%< substrate protein remaining % ≤100%)
O=C1CCN(N2C(=O)c3ccc(CN4CCC(N5C(=O)COc6cc(F)ccc65)CC4)cc3C2=O)C(=O)N1 [GT-07683, 2-(2,4-dioxotetrahydropyrimidin-1(2H)-yl)-5-((4-(7-fluoro-3-oxo-2,3-dihydro-4H-benzo[b][1,4]oxazin-4-yl)piperidin-1-yl)methyl)isoindoline-1,3-dione]	B (80%< substrate protein remaining % ≤100%)	A (0% ≤ substrate protein remaining % ≤80%)	B (80%< substrate protein remaining % ≤100%)	B (80%< substrate protein remaining % ≤100%)	B (80%< substrate protein remaining % ≤100%)	B (80%< substrate protein remaining % ≤100%)
O=C1CCN(N2C(=O)c3ccc(CN4CCC(C5CCOc6cc(F)ccc65)CC4)cc3C2=O)C(=O)N1 (stereo not drawn) [GT-07684, 2-(2,4-dioxotetrahydropyrimidin-1(2H)-yl)-5-((4-(7-fluorochroman-4-yl)piperidin-1-yl)methyl)isoindoline-1,3-dione]	B (80%< substrate protein remaining % ≤100%)	A (0% ≤ substrate protein remaining % ≤80%)	B (80%< substrate protein remaining % ≤100%)	B (80%< substrate protein remaining % ≤100%)	B (80%< substrate protein remaining % ≤100%)	B (80%< substrate protein remaining % ≤100%)
O=C1CCN(N2C(=O)c3ccc(CN4CCC(=C5CCOc6cc(F)ccc65)CC4)cc3C2=O)C(=O)N1 [GT-07685, 2-(2,4-dioxotetrahydropyrimidin-1(2H)-yl)-5-((4-(7-fluorochroman-4-ylidene)piperidin-1-yl)methyl)isoindoline-1,3-dione]	B (80%< substrate protein remaining % ≤100%)	A (0% ≤ substrate protein remaining % ≤80%)	B (80%< substrate protein remaining % ≤100%)	B (80%< substrate protein remaining % ≤100%)	B (80%< substrate protein remaining % ≤100%)	B (80%< substrate protein remaining % ≤100%)
O=C1CCN(N2C(=O)c3ccc(CN4CCC(c5cccc6c(F)cccc56)CC4)cc3C2=O)C(=O)N1 [GT-07686, 2-(2,4-dioxotetrahydropyrimidin-1(2H)-yl)-5-((4-(5-fluoronaphthalen-1-yl)piperidin-1-yl)methyl)isoindoline-1,3-dione]	B (80%< substrate protein remaining % ≤100%)	A (0% ≤ substrate protein remaining % ≤80%)	B (80%< substrate protein remaining % ≤100%)	B (80%< substrate protein remaining % ≤100%)	B (80%< substrate protein remaining % ≤100%)	B (80%< substrate protein remaining % ≤100%)
O=C1CCN(N2C(=O)c3ccc(CN4CC=C(c5cccc6c(F)cccc56)CC4)cc3C2=O)C(=O)N1 [GT-07687, 2-(2,4-dioxotetrahydropyrimidin-1(2H)-yl)-5-((4-(5-fluoronaphthalen-1-yl)-3,6-dihydropyridin-1(2H)-yl)methyl)isoindoline-1,3-dione]	B (80%< substrate protein remaining % ≤100%)	A (0% ≤ substrate protein remaining % ≤80%)	B (80%< substrate protein remaining % ≤100%)	B (80%< substrate protein remaining % ≤100%)	B (80%< substrate protein remaining % ≤100%)	B (80%< substrate protein remaining % ≤100%)
O=C1CCN(N2C(=O)c3ccc(CN4CCC(c5cccc6cnccc56)CC4)cc3C2=O)C(=O)N1 [GT-07688, 2-(2,4-dioxotetrahydropyrimidin-1(2H)-yl)-5-((4-(isoquinolin-5-yl)piperidin-1-yl)methyl)isoindoline-1,3-dione]	B (80%< substrate protein remaining % ≤100%)	A (0% ≤ substrate protein remaining % ≤80%)	B (80%< substrate protein remaining % ≤100%)	B (80%< substrate protein remaining % ≤100%)	B (80%< substrate protein remaining % ≤100%)	B (80%< substrate protein remaining % ≤100%)
O=C1CCN(N2C(=O)c3ccc(CN4CCC(c5ccnc6cc(F)ccc56)CC4)cc3C2=O)C(=O)N1 [GT-07689, 2-(2,4-dioxotetrahydropyrimidin-1(2H)-yl)-5-((4-(7-fluoroquinolin-4-yl)piperidin-1-yl)methyl)isoindoline-1,3-dione]	B (80%< substrate protein remaining % ≤100%)	A (0% ≤ substrate protein remaining % ≤80%)	B (80%< substrate protein remaining % ≤100%)	B (80%< substrate protein remaining % ≤100%)	A (0% ≤ substrate protein remaining % ≤80%)	B (80%< substrate protein remaining % ≤100%)
O=C1CCN(N2Cc3cc(CN4CC(C5CCOc6cc(F)ccc65)C4)ccc3C2=O)C(=O)N1 (stereo not drawn) [GT-07690, 1-(5-((3-(7-fluorochroman-4-yl)azetidin-1-yl)methyl)-1-oxoisoindolin-2-yl)dihydropyrimidine-2,4(1H,3H)-dione]	B (80%< substrate protein remaining % ≤100%)	A (0% ≤ substrate protein remaining % ≤80%)	B (80%< substrate protein remaining % ≤100%)	B (80%< substrate protein remaining % ≤100%)	A (0% ≤ substrate protein remaining % ≤80%)	A (0% ≤ substrate protein remaining % ≤80%)
O=C1CCN(N2Cc3cc(CN4CC(c5ccnc6cc(F)ccc56)C4)ccc3C2=O)C(=O)N1 [GT-07711, 1-(5-((3-(7-fluoroquinolin-4-yl)azetidin-1-yl)methyl)-1-oxoisoindolin-2-yl)dihydropyrimidine-2,4(1H,3H)-dione]	B (80%< substrate protein remaining % ≤100%)	A (0% ≤ substrate protein remaining % ≤80%)	A (0% ≤ substrate protein remaining % ≤80%)	A (0% ≤ substrate protein remaining % ≤80%)	A (0% ≤ substrate protein remaining % ≤80%)	A (0% ≤ substrate protein remaining % ≤80%)
O=C1CCN(N2C(=O)c3ccc(CN4CC(C5CCOc6cc(F)ccc65)C4)cc3C2=O)C(=O)N1 (stereo not drawn) [GT-07715, 2-(2,4-dioxotetrahydropyrimidin-1(2H)-yl)-5-((3-(7-fluorochroman-4-yl)azetidin-1-yl)methyl)isoindoline-1,3-dione]	B (80%< substrate protein remaining % ≤100%)	A (0% ≤ substrate protein remaining % ≤80%)	B (80%< substrate protein remaining % ≤100%)	B (80%< substrate protein remaining % ≤100%)	A (0% ≤ substrate protein remaining % ≤80%)	B (80%< substrate protein remaining % ≤100%)
